Experimental data as given in ChEMBL document CHEMBL1140340 (J Med Chem, 2005).

Tests used:
[1] = molecular target: T1, Norepinephrine transporter (Rattus norvegicus, UniProt Q9WTR4); test: Inhibition of rat brain Norepinephrine transporter as accumulation of [3H]NE; type: functional
[2] = molecular target: T2, Sodium-dependent dopamine transporter (Rattus norvegicus, UniProt P23977); test: Inhibition of rat brain dopamine transporter as accumulation of [3H]DA; type: functional
[3] = molecular target: T1, Norepinephrine transporter; test: Inhibition of rat brain Norepinephrine transporter as accumulation of [3H]-NE; type: functional
[4] = molecular target: T3, Sodium-dependent serotonin transporter (Rattus norvegicus, UniProt P31652); test: Inhibition of rat brain Serotonin transporter as accumulation of [3H]5-HT; type: functional
[5] = molecular target: T2, Sodium-dependent dopamine transporter; test: Inhibition of rat brain Dopamine transporter uptake as [3H]DA accumulation; type: functional
[6] = molecular target: T3, Sodium-dependent serotonin transporter; test: Inhibition of rat brain Serotonin transporter uptake as [3H]5-HT accumulation
[7] = molecular target: Monoamine transporters; Norepininephrine & dopamine (Rattus norvegicus) (UniProt P23977+Q9WTR4); test: Ratio between Dopamine transporter and Norepinephrine transporter uptake; type: protein assay
[8] = molecular target: Monoamine transporters; Norepinephrine & serotonin (Rattus norvegicus) (UniProt P31652+Q9WTR4); test: Ratio between Serotonin transporter and Norepinephrine transporter uptake; type: protein assay
[9] = molecular target: Monoamine transporters; serotonin & dopamine (Rattus norvegicus) (UniProt P31652+P23977); test: Ratio between Dopamine transporter and Serotonin transporter uptake; type: protein assay
[10] = molecular target: T2, Sodium-dependent dopamine transporter; test: Inhibition of [3H]WIN-35428 binding to rat brain dopamine transporter

T3 sequence (P31652 whole entry): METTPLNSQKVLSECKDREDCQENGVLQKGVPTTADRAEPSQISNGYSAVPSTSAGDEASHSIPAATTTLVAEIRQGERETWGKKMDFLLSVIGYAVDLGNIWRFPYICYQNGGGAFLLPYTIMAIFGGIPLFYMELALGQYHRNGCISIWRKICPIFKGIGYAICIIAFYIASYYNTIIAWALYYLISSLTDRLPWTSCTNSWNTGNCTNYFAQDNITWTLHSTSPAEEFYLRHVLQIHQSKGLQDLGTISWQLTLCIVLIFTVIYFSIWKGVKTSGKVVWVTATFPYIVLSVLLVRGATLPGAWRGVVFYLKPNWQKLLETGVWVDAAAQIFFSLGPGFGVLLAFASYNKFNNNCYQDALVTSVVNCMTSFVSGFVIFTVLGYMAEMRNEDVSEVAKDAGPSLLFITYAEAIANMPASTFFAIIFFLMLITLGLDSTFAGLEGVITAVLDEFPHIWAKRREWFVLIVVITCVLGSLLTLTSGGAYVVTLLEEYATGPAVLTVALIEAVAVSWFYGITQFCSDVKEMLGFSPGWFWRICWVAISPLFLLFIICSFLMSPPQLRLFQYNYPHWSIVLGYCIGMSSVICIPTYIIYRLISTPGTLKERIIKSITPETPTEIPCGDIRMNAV
T2 sequence (P23977 whole entry): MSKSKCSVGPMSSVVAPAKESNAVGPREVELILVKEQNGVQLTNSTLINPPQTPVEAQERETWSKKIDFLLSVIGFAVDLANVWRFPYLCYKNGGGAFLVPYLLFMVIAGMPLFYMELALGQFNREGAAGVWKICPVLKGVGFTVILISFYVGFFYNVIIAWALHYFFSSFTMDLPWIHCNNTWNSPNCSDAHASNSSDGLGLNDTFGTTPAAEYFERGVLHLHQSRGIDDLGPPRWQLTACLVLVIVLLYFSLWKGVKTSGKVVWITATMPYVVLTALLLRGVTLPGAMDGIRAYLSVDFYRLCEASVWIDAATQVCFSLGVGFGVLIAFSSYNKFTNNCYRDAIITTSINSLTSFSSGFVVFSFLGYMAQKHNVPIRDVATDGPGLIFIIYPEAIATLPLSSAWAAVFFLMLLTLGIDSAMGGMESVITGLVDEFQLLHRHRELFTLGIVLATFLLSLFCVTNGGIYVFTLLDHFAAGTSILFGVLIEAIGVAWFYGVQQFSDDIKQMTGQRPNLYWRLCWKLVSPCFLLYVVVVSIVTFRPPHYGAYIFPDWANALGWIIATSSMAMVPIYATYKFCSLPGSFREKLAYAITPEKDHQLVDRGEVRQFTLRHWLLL
Chain of Monoamine transporters; serotonin & dopamine (Rattus norvegicus) (P23977 whole entry, looked up): as the sequence (P23977 whole entry) above
Chain of Monoamine transporters; serotonin & dopamine (Rattus norvegicus) (P31652 whole entry, looked up): as the sequence (P31652 whole entry) above
T1 sequence (Q9WTR4 whole entry): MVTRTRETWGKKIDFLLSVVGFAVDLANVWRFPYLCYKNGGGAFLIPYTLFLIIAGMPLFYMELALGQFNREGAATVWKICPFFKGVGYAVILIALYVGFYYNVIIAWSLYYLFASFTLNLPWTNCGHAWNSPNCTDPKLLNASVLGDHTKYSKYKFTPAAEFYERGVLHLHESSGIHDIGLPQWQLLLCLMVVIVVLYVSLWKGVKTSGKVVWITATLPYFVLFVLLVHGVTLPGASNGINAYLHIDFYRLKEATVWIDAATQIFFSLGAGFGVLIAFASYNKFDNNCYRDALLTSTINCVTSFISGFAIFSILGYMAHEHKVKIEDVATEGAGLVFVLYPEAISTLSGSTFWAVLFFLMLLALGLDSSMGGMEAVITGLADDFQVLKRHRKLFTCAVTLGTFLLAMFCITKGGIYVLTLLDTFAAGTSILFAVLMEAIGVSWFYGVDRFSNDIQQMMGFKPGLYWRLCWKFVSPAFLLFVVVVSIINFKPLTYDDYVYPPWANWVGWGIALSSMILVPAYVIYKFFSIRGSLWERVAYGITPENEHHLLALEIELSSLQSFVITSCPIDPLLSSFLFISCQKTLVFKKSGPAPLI

Row | SMILES | IC50 [1] [nM] | Ki [2] [nM] | Ki [3] [nM] | Ki [4] [nM] | IC50 [5] [nM] | IC50 [6] [nM] | Ratio [7] | Ratio [8] | Ratio [9] | IC50 [10] [nM]
1 | OC1CC(C(c2ccccc2)c2ccccc2)OCC1NCc1ccc(F)cc1 (single isomer, unassigned) | 1130 | 327 | 1050 | 5000 | 440 | 5560 | 0.31 | 4.8 | 0.065 | 1030
2 | OC1COC(C(c2ccccc2)c2ccccc2)CC1NCc1ccccc1 (single isomer, unassigned) | 3220 | 716 | 2890 | 3970 | 962 | 4420 | 0.25 | 1.4 | 0.18 | 1250
3 | COc1ccc(CN[C@@H]2CO[C@H](C(c3ccccc3)c3ccccc3)C[C@H]2O)c(OC)c1 | 115 | 528 | 95 | 20.8 | 710 | 24 | 5.6 | 0.22 | 25 | 1060
4 | OC1CC(C(c2ccccc2)c2ccccc2)OCC1NCCc1ccc(F)cc1 (single isomer, unassigned) | 77.3 | 162 | 71 | 2650 | 218 | 2950 | 2.3 | 37 | 0.061 | 443
5 | COc1ccc(CNC2CC(C(c3ccccc3)c3ccccc3)OCC2O)cc1 (single isomer, unassigned) | 1840 | 1980 | 1700 | 3420 | 2670 | 3810 | 1.2 | 2 | 0.58 | 3750
6 | O[C@@H]1C[C@@H](C(c2ccccc2)c2ccccc2)OC[C@H]1NCc1ccc(F)cc1 | 13.3 | 125 | 12.2 | 607 | 169 | 676 | 10.2 | 50 | 0.21 | 308
7 | COc1ccc(CN[C@@H]2CO[C@H](C(c3ccccc3)c3ccccc3)C[C@H]2O)cc1 | – | – | 15.8 | – | – | – | – | – | – | –
8 | O[C@@H]1C[C@@H](C(c2ccccc2)c2ccccc2)OC[C@H]1NCc1ccccc1 | – | 446 | – | 707 | 600 | 862 | – | – | – | –
9 | OC1CC(C(c2ccccc2)c2ccccc2)OCC1NCc1ccccc1 (single isomer, unassigned) | – | 253 | – | 5500 | 341 | 6120 | – | – | – | 596

The next lines start with the values.

Row | IC50 [1] [nM] | Ki [2] [nM] | Ki [3] [nM] | Ki [4] [nM] | IC50 [5] [nM] | IC50 [6] [nM] | Ratio [7] | Ratio [8] | Ratio [9] | IC50 [10] [nM] | SMILES
10 | 765 | 611 | 686 | 793 | 822 | 1070 | 0.89 | 1.2 | 0.77 | 771 | COc1ccc(CN[C@@H]2C[C@@H](C(c3ccccc3)c3ccccc3)OC[C@H]2O)cc1
11 | – | – | 412 | – | – | – | – | – | – | – | COc1ccc(CNC2COC(C(c3ccccc3)c3ccccc3)CC2O)cc1 (single isomer, unassigned)
12 | 336 | 1940 | 296 | 9560 | 2610 | 10600 | 6.6 | 32 | 0.2 | 4640 | O[C@@H]1CO[C@H](C(c2ccccc2)c2ccccc2)C[C@H]1NCc1ccccc1
13 | 439 | 317 | 406 | 3210 | 427 | 3570 | 0.78 | 7.9 | 0.099 | 1050 | O[C@@H]1C[C@@H](C(c2ccccc2)c2ccccc2)OC[C@H]1NCCc1ccc(F)cc1
14 | 108 | 100 | 101 | 19.7 | 135 | 25.4 | 0.99 | 0.2 | 5.1 | 298 | COc1cc(CN[C@@H]2CO[C@H](C(c3ccccc3)c3ccccc3)C[C@H]2O)cc(OC)c1
